# From patent publication US12098411B2, “Exogenous ketone blend compositions for delivery of ketone bodies” (KetoneAid, Inc., priority 2016, dated 2024)
# Read-outs that look alike come from different tables or passages of the source.
# Legend:
# [1] = cited from earlier work
# [2] = Ketone blood concentration after ingestion of 1,3-butanediol (FIG. 5, FIG. 6); format: in vivo, human
# Excerpt: FIG. 5 depicts an exemplary ketone blood concentration after ingestion of racemic 1,3-butanediol.
# FIG. 6 depicts a ketone blood concentration after one person ingested (D)-1,3-butanediol, compared to the results of two people ingesting racemic 1,3-butanediol.
# It should also be noted that only the D enantiomer is active in the body as a source of extracellular fuel that is then transported into the cells. Ketone blood level meters currently on the market only measure the blood level of the D enantiomer. Products containing racemic salts require two to three times the amount of sodium, calcium and potassium for an equal amount of (D)-β-hydroxybutyrate. A reason the potential levels of (D)-β-hydroxybutyrate in the blood is over double compared with an equal amount of the racemic solutions is because the body has to waste energy and uses up some of the (D)-β-hydroxybutyrate to burn off the unnatural (L)-β-hydroxybutyrate.
# FIG. 5 depicts exemplary results from ingestion of 33 ml racemic 1,3-butanediol. […] For example, as shown, 33 ml of the non-racemic (D) form provided an increase in ketones of approximately 3.2 mmol/L whereas the racemic form provided approximately 0.9-1.0 mmol/L increases over pre consumption ketone levels.
# [3] = system: pyruvate dehydrogenase impairment; experiment: Relief of fatigue and cognitive impairment in persons suffering with ALS; format: in vivo, human
# Excerpt: Persons suffering with ALS display chronic fatigue and chronic cognitive impairment. The mechanism of impairment has been traced to an impairment with pyruvate dehydrogenase in the mitochondria. Cells of the central nervous system, the heart and skeletal muscles, due to the impairment, lack the critical energy or ATP to function normally. (D)-β-hydroxybutyrate circumvents the pyruvate dehydrogenase impairment and provides for far higher energy and ATP creation in those cells. […] The dosing regimen should be between 5-60 grams 1-3 times per day with the preferred amount to be between 20-40 grams 3 times per day.
compound,measurement,setting,value
"CC(O)CC(=O)[O-].[K+] (racemic) [racemic potassium β-hydroxybutyrate, potassium β-hydroxybutyrate]",blood ketones reachable,[1]; consumed at about 100% of potassium's RDA,approximately 0.5 mmol/L
"CC(O)CC(=O)[O-].[Na+] (racemic) [racemic sodium β-hydroxybutyrate, sodium β-hydroxybutyrate]",blood ketones reachable,[1]; consumed at about 100-200% of the RDA for sodium,approximately 0.5 mmol/L
"CC(O)CCO (centres unmarked) [(D)-1,3-butanediol]","amount of ketones (mmol) in the blood relative to racemic 1,3-butanediol","[2]; 33 ml each, over a 120 minute period",over double
same,increase in ketones over pre consumption ketone levels,[2]; ingestion of 33 ml,approximately 3.2 mmol/L
C[C@@H](O)CC(=O)O [(D)-β-hydroxybutyrate],time to significant reduction of fatigue and cognitive impairment after ingestion,[3],≤ 15 min
